SMILES strings stand for the structures. Where two headings read alike, the source gives them in different places.

One test concerns the target T1, Human Calpain 1/NS1 (Homo sapiens, UniProt P07384).
T1 sequence (P07384 1-714): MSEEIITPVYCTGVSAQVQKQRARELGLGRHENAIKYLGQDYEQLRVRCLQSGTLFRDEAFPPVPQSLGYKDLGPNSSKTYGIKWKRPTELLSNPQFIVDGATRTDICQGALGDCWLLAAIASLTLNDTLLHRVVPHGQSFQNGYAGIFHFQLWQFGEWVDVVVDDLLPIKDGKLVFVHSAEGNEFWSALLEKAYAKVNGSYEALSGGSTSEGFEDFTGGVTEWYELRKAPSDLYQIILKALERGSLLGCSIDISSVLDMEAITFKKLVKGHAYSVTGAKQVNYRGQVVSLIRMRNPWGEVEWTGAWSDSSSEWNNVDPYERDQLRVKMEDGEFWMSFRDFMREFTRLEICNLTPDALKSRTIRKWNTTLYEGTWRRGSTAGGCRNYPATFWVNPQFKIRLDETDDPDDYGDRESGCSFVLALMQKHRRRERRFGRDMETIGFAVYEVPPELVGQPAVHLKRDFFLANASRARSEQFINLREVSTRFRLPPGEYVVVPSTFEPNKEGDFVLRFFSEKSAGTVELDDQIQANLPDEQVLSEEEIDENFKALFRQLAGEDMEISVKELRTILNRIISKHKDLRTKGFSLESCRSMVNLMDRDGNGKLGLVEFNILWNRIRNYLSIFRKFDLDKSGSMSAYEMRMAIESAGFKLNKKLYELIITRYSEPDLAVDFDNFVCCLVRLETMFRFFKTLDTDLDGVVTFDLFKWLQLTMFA
T1 sequence (P04632 1-268 partner): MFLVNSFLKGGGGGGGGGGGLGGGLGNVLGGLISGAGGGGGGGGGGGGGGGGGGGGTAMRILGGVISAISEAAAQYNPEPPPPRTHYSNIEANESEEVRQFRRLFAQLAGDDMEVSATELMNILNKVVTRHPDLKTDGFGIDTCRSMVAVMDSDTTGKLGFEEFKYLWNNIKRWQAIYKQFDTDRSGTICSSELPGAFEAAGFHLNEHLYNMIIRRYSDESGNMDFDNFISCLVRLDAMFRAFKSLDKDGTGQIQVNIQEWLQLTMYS
The test is described as follows: Calpain inhibition continuous fluorescence (FRET) assay, Human Calpain 1/NS1. Format: biochemical. In short, it runs like this:
(§1)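 Human calpains 1, 2 and 9 preincubated with inhibitor at 25 °C in 50 mM Tris pH 7.5, 100 mM NaCl, 1 mM DTT; reaction started with 5-FAM/QXL 520 FRET peptide plus CaCl2 for activation. Fluorescence (490/520 nm) followed 10 min; rates from 1-5 min slopes fitted to 4-parameter logistic for IC50.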

The test system of test [1] is Calpain activity in SH-SY5Y cells (SBDP-150). The test is described as follows: SH-SY5Y Spectrin western blot assay (SBDP-150 breakdown product, A23187-induced). Format: cell-based. The conditions noted are these: Homo sapiens, read-out: SH-SY5Y Spectrin IC50. A general note: Immunoblotting shows a protein as a band on a membrane.
Test [2] has as its system Calpain activity in SH-SY5Y cells. The test is described as follows: SH-SY5Y + AMC fluorescence assay (Suc-LLVY-AMC substrate). Format: cell-based.
The target of another test is T2, Human Calpain 9/NS1 (Homo sapiens, UniProt O14815).
T2 sequence (O14815 1-690): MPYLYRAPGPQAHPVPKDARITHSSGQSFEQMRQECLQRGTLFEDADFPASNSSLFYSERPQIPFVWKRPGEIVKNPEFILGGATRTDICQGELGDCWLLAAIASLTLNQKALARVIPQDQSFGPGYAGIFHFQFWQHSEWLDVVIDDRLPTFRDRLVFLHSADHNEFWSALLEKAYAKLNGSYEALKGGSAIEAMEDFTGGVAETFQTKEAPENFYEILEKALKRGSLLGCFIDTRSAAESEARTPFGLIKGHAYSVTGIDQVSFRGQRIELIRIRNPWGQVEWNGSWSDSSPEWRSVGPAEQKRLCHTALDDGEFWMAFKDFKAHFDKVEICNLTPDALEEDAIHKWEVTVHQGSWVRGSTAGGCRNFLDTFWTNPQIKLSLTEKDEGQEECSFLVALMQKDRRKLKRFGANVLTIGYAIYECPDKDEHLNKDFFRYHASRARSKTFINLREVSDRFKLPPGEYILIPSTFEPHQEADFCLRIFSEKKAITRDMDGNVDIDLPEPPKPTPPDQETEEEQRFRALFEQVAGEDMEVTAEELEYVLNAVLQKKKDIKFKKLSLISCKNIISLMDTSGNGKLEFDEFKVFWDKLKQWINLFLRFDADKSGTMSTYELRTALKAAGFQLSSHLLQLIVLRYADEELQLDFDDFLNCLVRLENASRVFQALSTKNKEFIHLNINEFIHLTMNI
T2 sequence (P04632 1-268 partner): T1 sequence (P04632 1-268 partner)
Description: Calpain inhibition continuous fluorescence (FRET) assay, Human Calpain 9/NS1. In kind it is biochemical. In a few lines: as §1

For another test, the target named is T3, Human Calpain 2/NS1 (Homo sapiens, UniProt P17655).
T3 sequence (P17655 1-700): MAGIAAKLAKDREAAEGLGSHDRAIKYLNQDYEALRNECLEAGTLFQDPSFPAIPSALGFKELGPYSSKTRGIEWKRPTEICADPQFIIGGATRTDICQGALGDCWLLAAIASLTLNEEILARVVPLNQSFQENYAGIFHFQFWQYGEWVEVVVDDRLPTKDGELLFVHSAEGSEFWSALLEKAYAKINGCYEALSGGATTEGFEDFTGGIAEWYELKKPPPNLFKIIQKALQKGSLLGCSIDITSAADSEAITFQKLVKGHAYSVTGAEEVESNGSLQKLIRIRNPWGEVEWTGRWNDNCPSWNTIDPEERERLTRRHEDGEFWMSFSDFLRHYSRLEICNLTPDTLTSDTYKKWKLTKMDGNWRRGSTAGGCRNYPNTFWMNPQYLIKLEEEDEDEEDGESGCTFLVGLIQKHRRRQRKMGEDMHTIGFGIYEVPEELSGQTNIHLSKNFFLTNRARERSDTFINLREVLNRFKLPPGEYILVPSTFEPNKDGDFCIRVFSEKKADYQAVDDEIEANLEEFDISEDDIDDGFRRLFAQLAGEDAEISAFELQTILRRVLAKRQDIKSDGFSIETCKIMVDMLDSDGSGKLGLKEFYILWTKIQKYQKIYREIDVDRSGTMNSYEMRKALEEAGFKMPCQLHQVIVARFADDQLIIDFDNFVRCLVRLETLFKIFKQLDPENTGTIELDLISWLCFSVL
T3 sequence (P04632 1-268 partner): T1 sequence (P04632 1-268 partner)
The test is described as follows: Calpain inhibition continuous fluorescence (FRET) assay, Human Calpain 2/NS1. In kind it is biochemical. In a few lines:
as §1

[3] abbreviates: read-out: Human Calpain 1/NS1 IC50.
Setting [4] is: SH-SY5Y cells, A23187-induced SBDP-150, western blot.
[5] abbreviates: read-out: Human Calpain 9/NS1 IC50.
Where [6] appears, read: read-out: Human Calpain 2/NS1 IC50.
Where [7] appears, read: Column A, read-out: Human Calpain 1/NS1 IC50.
[8] abbreviates: Column D, SH-SY5Y cells, A23187-induced SBDP-150.
The mark [9] stands for this setting: Column E, read-out: SH-SY5Y + AMC IC50.
[10] abbreviates: Column C, read-out: Human Calpain 9/NS1 IC50.
[11] abbreviates: Column B, read-out: Human Calpain 2/NS1 IC50.

On to `NC(=O)C(=O)C(Cc1ccccc1)NC(=O)c1cn(C(F)F)nc1-c1ccc2ccccc2c1` (stereo not drawn) [Compound 551, N-(4-amino-3,4-dioxo-1-phenylbutan-2-yl)-1-(difluoromethyl)-3-(naphthalen-2-yl)-1H-pyrazole-4-carboxamide], for which the IC50 is below 3 µM at Human Calpain 1/NS1 (setting [3]); 10 to 25 µM in test [1] (setting [4]); above 25 µM in test [2] (read-out: SH-SY5Y + AMC IC50); below 3 µM at Human Calpain 9/NS1 (setting [5]); below 3 µM at Human Calpain 2/NS1 (setting [6]).
Consider `Cn1cc(C(=O)N[C@@H](Cc2ccccc2)C(=O)C(N)=O)c(-c2cccnc2)n1` [Compound 188, (S)—N-(4-amino-3,4-dioxo-1-phenylbutan-2-yl)-1-methyl-3-(pyridin-3-yl)-1H-pyrazole-4-carboxamide], for which the IC50 on Human Calpain 1/NS1 (setting [7]) is below 3 µM; in test [1] (setting [8]), 10 to 25 µM; in test [2] (setting [9]), above 25 µM; at Human Calpain 9/NS1 (setting [10]) it was below 3 µM; at Human Calpain 2/NS1 (setting [11]), below 3 µM.
For the compound `Cc1cc(C(=O)N[C@@H](Cc2ccccc2)C(=O)C(N)=O)n(-c2cccc(CNC(=O)Oc3ccccc3)c2)n1` [Compound 344, Phenyl (S)-(3-(5-((4-amino-3,4-dioxo-1-phenylbutan-2-yl)carbamoyl)-3-methyl-1H-pyrazol-1-yl)benzyl)carbamate], the IC50 against Human Calpain 1/NS1 is below 3 µM; in test [1] (SH-SY5Y), above 25 µM; in test [2] (read-out: SH-SY5Y + AMC IC50), 10 to 25 µM; on Human Calpain 9/NS1, below 3 µM; against Human Calpain 2/NS1, below 3 µM.
With `Cn1cc(C(=O)NC(Cc2ccccc2)C(=O)C(N)=O)c(-c2ccccc2Cl)n1` (stereo not drawn) [Compound 604, N-(4-amino-3,4-dioxo-1-phenylbutan-2-yl)-3-(2-chlorophenyl)-1-methyl-1H-pyrazole-4-carboxamide], the IC50 on Human Calpain 1/NS1 (setting [3]) is below 3 µM; in test [1] (setting [4]), above 25 µM; in test [2] (read-out: SH-SY5Y + AMC IC50), below 10 µM; on Human Calpain 9/NS1 (setting [5]) it was below 3 µM; at Human Calpain 2/NS1 (setting [6]), below 3 µM.
Regarding `Cc1cc(C(=O)N[C@@H](Cc2ccccc2)C(=O)C(N)=O)n(-c2ccc(CNC(=O)OCc3ccccc3)cc2)n1` [Compound 153, Benzyl (S)-(4-(5-((4-amino-3,4-dioxo-1-phenylbutan-2-yl)carbamoyl)-3-methyl-1H-pyrazol-1-yl)benzyl)carbamate], the IC50 on Human Calpain 1/NS1 (setting [7]) was below 3 µM; in test [1] (SH-SY5Y) it was below 10 µM; in test [2] (read-out: SH-SY5Y + AMC IC50, Column E), above 25 µM; at Human Calpain 9/NS1 (setting [10]), below 3 µM; at Human Calpain 2/NS1 (setting [11]), below 3 µM.
Regarding `Cc1nc(-c2cccc(F)c2)c(C(=O)N[C@H](C=O)Cc2ccccc2)o1` [Compound 353, (S)-4-(3-fluorophenyl)-2-methyl-N-(1-oxo-3-phenylpropan-2-yl)oxazole-5-carboxamide], the IC50 was below 3 µM at Human Calpain 1/NS1 (setting [3]); 10 to 25 µM in test [1] (setting [4]); above 25 µM in test [2] (read-out: SH-SY5Y + AMC IC50); below 3 µM at Human Calpain 9/NS1 (setting [5]); below 3 µM at Human Calpain 2/NS1 (setting [6]).
In the case of `CCCCC(NC(=O)c1oc(C)nc1-c1ccccc1)C(=O)C(=O)NC1CC1` (stereo not drawn) [Compound 460, N-(1-(cyclopropylamino)-1,2-dioxoheptan-3-yl)-2-methyl-4-phenyloxazole-5-carboxamide], the IC50 at Human Calpain 1/NS1 (setting [3]) is below 3 µM; in test [1] (setting [4]) it was above 25 µM; in test [2] (read-out: SH-SY5Y + AMC IC50) it was above 25 µM; on Human Calpain 9/NS1 (setting [5]) it was below 3 µM; at Human Calpain 2/NS1 (setting [6]), below 3 µM.
Take `Cc1nc(-c2ccccc2)c(C(=O)N[C@H](C=O)Cc2ccccc2)o1` [Compound 322, (S)-2-methyl-N-(1-oxo-3-phenylpropan-2-yl)-4-phenyloxazole-5-carboxamide]: the IC50 on Human Calpain 1/NS1 (setting [3]) is below 3 µM; in test [1] (setting [4]), 10 to 25 µM; in test [2] (read-out: SH-SY5Y + AMC IC50), above 25 µM; on Human Calpain 9/NS1 (setting [5]), below 3 µM; on Human Calpain 2/NS1 (setting [6]), below 3 µM.
For the compound `NC(=O)C(=O)C(Cc1ccccc1)NC(=O)c1oc(C2CC2)nc1-c1ccccc1` (stereo not drawn) [Compound 393, N-(4-amino-3,4-dioxo-1-phenylbutan-2-yl)-2-cyclopropyl-4-phenyloxazole-5-carboxamide], the IC50 on Human Calpain 1/NS1 (setting [3]) is below 3 µM; in test [1] (setting [4]) it was 10 to 25 µM; in test [2] (read-out: SH-SY5Y + AMC IC50) it was below 10 µM; at Human Calpain 9/NS1 (setting [5]) it was below 3 µM; at Human Calpain 2/NS1 (setting [6]) it was below 3 µM.
Consider `NC(=O)C(=O)[C@H](Cc1ccccc1)NC(=O)c1c[nH]nc1-c1ccccc1` [Compound 30, (S)—N-(4-amino-3,4-dioxo-1-phenylbutan-2-yl)-3-phenyl-1H-pyrazole-4-carboxamide], for which the IC50 is below 3 µM on Human Calpain 1/NS1 (setting [7]); below 10 µM in test [1] (setting [8]); 10 to 25 µM in test [2] (setting [9]); below 3 µM on Human Calpain 9/NS1 (setting [10]); below 3 µM on Human Calpain 2/NS1 (setting [11]).
As to `Cc1cc(F)cc(-c2nn(C(F)F)cc2C(=O)NC(Cc2ccccc2)C(=O)C(N)=O)c1` (stereo not drawn) [Compound 554, N-(4-amino-3,4-dioxo-1-phenylbutan-2-yl)-1-(difluoromethyl)-3-(3-fluoro-5-methylphenyl)-1H-pyrazole-4-carboxamide], the IC50 on Human Calpain 1/NS1 (setting [3]) is below 3 µM; in test [1] (setting [4]), below 10 µM; in test [2] (read-out: SH-SY5Y + AMC IC50), below 10 µM; at Human Calpain 9/NS1 (setting [5]), below 3 µM; on Human Calpain 2/NS1 (setting [6]), below 3 µM.
In the case of `NC(=O)C(=O)C(Cc1ccccc1)NC(=O)c1nc(C2CC2)oc1-c1ccccc1` (stereo not drawn) [Compound 394, N-(4-amino-3,4-dioxo-1-phenylbutan-2-yl)-2-cyclopropyl-5-phenyloxazole-4-carboxamide], the IC50 is below 3 µM at Human Calpain 1/NS1 (setting [3]); above 25 µM in test [1] (setting [4]); above 25 µM in test [2] (read-out: SH-SY5Y + AMC IC50); below 3 µM at Human Calpain 9/NS1 (setting [5]); below 3 µM at Human Calpain 2/NS1 (setting [6]).

Values taken from patent US11339130B1 (Blade Therapeutics, Inc., priority 2016, dated 2022).
